Results: patent US11091490B2, “3-amino-1,5-dihydro-pyrazolo[3,4-d]pyrimidin-4-ones as cyclin dependent kinase inhibitors” (Oncotyrol Center for Personalized Cancer Medicine GMBH, priority 2016, dated 2021)
“And” between values parts separate entries of the source, which are not always exact repeats. Equal values may be shown once. Read-outs that look alike come from different tables or passages of the source.

Experiments:
RPMI-8226/GN1 = assay: Multiple myeloma cells in mono- and co-culture with osteoblasts, imaging based detection (RPMI-8226); assay type: cell-based
Method: (§1) Compound 86 has been compared with the key compound of WO 2000/21926 A2 (Example 121) in an imaging based detection system.
(§2) Two different multiple myeloma (MM) cell lines (RPMI-8226 (DSMZ, ACC 402), NCI-H929 DSMZ, ACC 163) have been used and were cultured in mono- and co-culture with osteoblasts (OB) (Osteoblasts were obtained by culturing hMSCs with a differentiation inducing medium for two weeks) in accordance with the method of Karadag A. et al. Journal of Bone and Mineral Research Vol. 15, No. 10, 2000 page 1935-43.

NCI-H929/GN2 = assay: Multiple myeloma cells in mono- and co-culture with osteoblasts, imaging based detection (NCI-H929); assay type: cell-based
Method: as §1, §2

- EC50 (RPMI-8226/GN1; Homo sapiens, RPMI-8226, RPMI-8226/GN1, co-culture with osteoblasts, read-out: co-culture (+ OB) EC50): 420 nM
- EC50 (RPMI-8226/GN1; Homo sapiens, RPMI-8226, RPMI-8226/GN1, mono-culture, read-out: mono-culture EC50): 120 nM
- EC50 (RPMI-8226/GN1; RPMI-8226/GN1, co-culture with osteoblasts, read-out: co-culture (+ OB) EC50): 520 nM and 650 nM
- EC50 (RPMI-8226/GN1; RPMI-8226/GN1, mono-culture, read-out: mono-culture EC50): 200 nM and 210 nM
- EC50 (NCI-H929/GN2; Homo sapiens, NCI-H929, NCI-H929/GN2, co-culture with osteoblasts, read-out: co-culture (+ OB) EC50): 160 nM
- EC50 (NCI-H929/GN2; Homo sapiens, NCI-H929, NCI-H929/GN2, mono-culture, read-out: mono-culture EC50): 50 nM
- EC50 (NCI-H929/GN2; NCI-H929/GN2, co-culture with osteoblasts, read-out: co-culture (+ OB) EC50): 150 nM
- EC50 (NCI-H929/GN2; NCI-H929/GN2, mono-culture, read-out: mono-culture EC50): 65 nM
Structure (SMILES): CC(C)c1nn(-c2c(Cl)cc(Cl)cc2Cl)c2nc(Cc3ccc(NC(=O)C4CN(C)CCN4C)cc3)[nH]c(=O)c12 (centres unmarked) [Reference compound, reference compound]
